Measured values taken from patent US5955434A, “Gel-forming polypeptide derivatives” (Brigham & Women's Hospital, priority 1996, dated 1999).
Residues, ends and D or L forms follow the SMILES beside them. *: point of attachment. Fmoc = O=C(OCC1c2ccccc2-c2ccccc21)*; Boc = CC(C)(C)OC(=O)*

Assays:
[1] = Solubility in water (Example 2); type: physicochemical
Description: (§1) Boil 10 ml water and suspend in it 0.8% finely ground compound 5 of Table 2. Strongly shake or stir the suspension then let stand 10-15 minutes. On cooling the solution becomes turbid at 50-60° C. and at room temperature a gel forms. The gel can be reheated, agitated and recooled. When repeated several times, a stronger gel forms.
Compound 5 is soluble below 0.8%. At concentrations below 0.4% little or no gel forms. When such a solution is evaporated to 50% volume and then heated and cooled, a gel forms.

[2] = Low strain oscillatory rheology (Rheometrics RFSII); type: physicochemical
Description: (triangles.) and 20° C. (circles). Other experimental conditions are as described for FIG. 6B.
Other experimental conditions and symbols are as described for FIG. 6C.
Of particular interest in this invention are the gels formed with Fmoc-Leu-Asp. At concentrations between 1 mg/ml and 1.5 mg/ml solutions of Fmoc-Leu-Asp undergo an abrupt increase in light scattering at both 20° C. and 60° C., as shown in FIG. 6A wherein 1 ml solutions in 1 cm diameter cylindrical cells were measured with a Brookhaven Instruments BI30ATN apparatus using a 633 nm 10 mW laser. When a solution of 2 mg/ml dipeptide is cooled from 100° C. to 60° C., viscoelastic parameters characteristic of a gel are obtained by low strain oscillatory measurements. The storage shear storage modulus, G', a measure of the elastic strength of the material, reaches a stable level of 80 Pa within several minutes (FIG. 6B). These measurements were made using a Rheometrics RFSII instrument1. The maximal shear strain was 1% for oscillatory deformation at a frequency of 1 rad/s. […] NY Acad. Sci. 408, 1-10, (1983) or F-actin, as shown in Janmey P. A. et al., Biochemistry 27, 8218-8227 (1988). […] G', shear storage modulus, depends weakly on frequency from 0.1 to 100 rad/s, and is much larger than the shear loss modulus G" (FIG. 6C). […]

[3] = Gel drying (evaporation of water); type: physicochemical
Description: Gels containing either 0.5-0.6% or 0.8% compound 5, gelatin, or starch are disolved in water at 90° C. and briefly cooled. The solutions (0.8 ml) are poured into shallow plastic dishes (17 mm inner diameter). On reaching room temperature, the dishes are weighed and left with desicants but without vacuum to dry. […] After 15 hours, the compound 5 gel has lost 57% of its water, but the gelatine and starch solutions have lost 70% and 87% of their water, respectively.

[4] = Shear modulus by free oscillations using a torsion pendulum; type: physicochemical
Description: From this curve is calculated the shear modulus G^1.
The shear modulus was measured by free oscillations using a torsion pendulum. The theory and description of the method are described in Plazek D., Vrancke., Berge J., Trans. Soc. Rheol. 2, 38-47 (1958); Ferry J. Viscoelastic Properties of Polymers, Wiley New York (1980), and Janmey P., et al., J. Rheol. 27, 135-153 (1993). Gels are formed by method 1 using Tris buffer pH7.4. The peptide concentration in FIG. 1 is 2.5 mg/ml (0.25%). […] This denotes the moderately high elastic strength of this gel.

[5] = Preparation of gels in ethylether; type: physicochemical; conditions: diethylether gel, -5° C.
Description: Suspend 150-200 mg finely ground compound 5 of table 2 in 10 mL boiling diethylether. Shake suspension, filter and let sit 30-60 minutes at -5° C. On cooling a gel forms. The peptide concentration can be measured by weighing the gel, and evaporating the solvent in vacuum to a constant weight. In this way a solute concentration of 1-1.2% was found.

[6] = Aqueous gel formation of Fmoc-protected peptides; type: physicochemical; conditions: for Gel formed / Gel formed (minimum conc., %): aqueous gels
Description: Aqueous gels of the synthesized compounds can be made by several methods which are outlined here and more fully described in the examples.
1. Finely ground dipeptide or tripeptide compound is suspended in boiling water, the mixture is briefly and vigorously mixed or shaken and left to cool. Between 50-60° C. gelation occurrs. This procedure can be repeated to obtain a more homogeneous mixture and a stronger gel.
2. The dipeptide or tripeptide compound is dissolved in a minimal volume of organic solvent which is miscible in water, and at room temperature a small volume of the solution is added to a large volume of water with rapid mixing, after which the gel forms.
3. Methods 1 and 2 can be combined.
as §1

[7] = Incorporation of low molecular weight drugs into Fmoc-Leu-Asp gels; type: physicochemical; conditions: Fmoc-Leu-Asp gel 10 mg/ml=21 mM
Description: (§2) The low molecular weight drugs 3,5-dimethyl-1-adamantanamine hydrochloride (Ada2Me) and 5-methyl-1-adamantanamine 3-carboxylic acid (AdaMeC) can also be incorporated into the Fmoc-Leu-Asp gels (10 mg/ml=21 mM) at concentrations of […] and 33 mM, respectively. At higher total concentrations, (>5 mM Ada2Me or >33 mM AdaMeC) these agents inhibit gelation. […] Fmoc-Leu-Asp alone produced antibodies with titers no greater than 1:4.

[8] = test system: rabbits; assay: Immunization of rabbits, antibody titers (double diffusion in agarose gel, reverse radial diffusion, passive hemagglutination); type: in vivo, rabbit; conditions: for production of specific antibodies, injected alone: rabbits, Ada2Me 5 mM, AdaMeC 33 mM
Description: as §2
Female random-bred rabbits were immunized three times, at weekly intervals and bled on the 24th day. A full dose was used for the first two immunizations, and a half of the full dose for the third immunization. Full doses of the BSA conjugates were 100 μg total protein. Before injections, AdaMeC-BSA and AdaMeC-Bal-BSA solutions were diluted with equal volumes of complete Freund's adjuvant, but AdaMeC+dipeptide gel was diluted with an equal volume of 0.01M phosphate buffer; pH 7.4. The volume of immunogen solutions injected each time was 1 ml. Immune sera were analyzed by two immunoprecipitation assays, the double diffusion in agarose gel and the reverse radial immunodiffusion, as described by Oudin, J. Meth. Enzymol., 70, 166-98 (1980). As shown in FIG. 8A double diffusion in agarose was used to determine the titer of antibodies recognizing AdaMeC-containing conjugates in sera of rabbits immunized with AdaMeC-coupled with or without a beta-alanine (Bal) spacer to BSA in complete Freunds adjuvant or with AdaMeC mixed with Fmoc-Leu-Asp without adjuvant. The antisera were tested against each of the three immunogens and compared to sera of rabbits injected with either AdaMeC or Fmoc-Leu-Asp-alone. And as shown in FIG. 8B the passive hemagglutination test, as described in Adler, F. L. & Adler, L. T., Meth. Enzymol., 70, 455-66 (1980), was used to analyze antisera of rabbits immunized with each of the three AdaMeC conjugates after challenge with the three AdaMeC conjugates, AdaMeC alone or Ada2Me. In the first two assays, the solid phase was 1% agarose containing 0.8% sodium chloride. The sample volumes were 25 μl. The probes were incubated for 72 h at 37° C. […]

[9] = chloroform; cited from earlier work
[10] = methanol and cyclohexane; cited from earlier work

With `CC(C)C[C@H](NC(=O)OCC1c2ccccc2-c2ccccc21)C(=O)N[C@@H](CC(=O)O)C(=O)O` [compound 5, Fmoc--Leu--Asp] (Fmoc-Leu-Asp-OH) the “concentration at which soluble in water” value [1] was “below 0.8%”, the “storage shear modulus G'” value ([2]; 2 mg/ml, cooled from 100° C. to 60° C., 1% maximal shear strain, 1 rad/s, stable level within several minutes) was 80 Pa and the “fall of both shear moduli (G', G") on strain, factor” value ([2]; samples strained to 10%) was 100. For the same compound, the “gel formation on cooling” value ([3]; 0.5-0.6% or 0.8% in water dissolved at 90° C.) was “forms a gel on cooling”, the water lost ([3]; after 15 hours, with desicants, without vacuum, room temperature) was 57% and the shear modulus ([4]; 2.5 mg/ml (0.25%), Tris buffer pH7.4, gel formed by method 1) was 3.1 Pa. For the same compound, the saturation concentration ([4]; Tris buffer pH7.4) was roughly 5 mg/mL, the “solute concentration in the gel” value [5] was 1-1.2% and the “gel formation with boric acid” value ([6]; 0.8% in 3.5% boric acid in boiling water, on cooling) was “a gel forms”. The “temperature at which the solution becomes turbid on cooling” value ([6]; 0.8% in boiled water) was 50-60 °C, the Gel formed [6] was “Yes” and the “Gel formed (minimum conc., %)” value [6] was 0.5%. The “gel formation in glycerol solution” value ([6]; solutions of 70% glycerol) was “forms gels” and the “concentration at which little or no gel forms” value ([6]; water) was “below 0.4%”.
For `CC12CC3CC(N)(C1)CC(C(=O)O)(C3)C2.Cl` (stereo not shown) [AdaMeC, 5-methyl-1-adamantanamine 3-carboxylic acid hydrochloride], the “concentration incorporated into Fmoc-Leu-Asp gels” value [7] was 33000 µM, the “total concentration that inhibits gelation” value [7] was greater than 33 mM and the “production of specific antibodies, injected alone” value [8] was “neither Ada2Me (5 mM) nor AdaMeC (33 mM) produced specific antibodies”.
For `CC[C@H](C)[C@H](NC(=O)[C@@H](NC(=O)[C@@H](NC(=O)OC(C)(C)C)C(C)C)C(C)C)C(=O)OC` [t-butoxycarbonyl-valyl-valylisoleucine methylester] (Boc-Val-Val-Ile-OMe), the critical micelle concentration [9] is listed as 2.5 mM.
For `CCCCCCCCCCCCCCCC(=O)c1ccc(OC(=O)[C@H](C)NC(=O)OCc2ccccc2)c([N+](=O)[O-])c1` [N-benzyl-oxycarbonyl L-alanine 4-hexadecanoyl-2nitrophenyl ester], the “concentration at which thermally reversible gels form” value [10] is given as “below 1%”.
In the case of `NC12CC3CC(CC(C3)C1)C2` [adamantamine], the “antibody production in rabbits” value ([8]; trapped in Fmoc-Leu-Asp gels without additional adjuvant, versus covalently linked to BSA and injected with adjuvant) was “at least as efficiently”.
For `CC[C@H](C)[C@H](NC(=O)OCC1c2ccccc2-c2ccccc21)C(=O)N[C@@H](CC(=O)O)C(=O)O` [compound 2, Fmoc--ile--Asp] (Fmoc-Ile-Asp-OH), the Gel formed [6] was “Yes” and the “Gel formed (minimum conc., %)” value [6] was 0.4%.
In the case of `CC12CC3CC(C)(C1)CC(N)(C3)C2.Cl` [Ada2Me, 3,5-dimethyl-1-adamantanamine hydrochloride], the “concentration incorporated into Fmoc-Leu-Asp gels” value [7] was 1000 µM, the “total concentration that inhibits gelation” value [7] was greater than 5 mM and the “production of specific antibodies, injected alone” value [8] was “neither Ada2Me (5 mM) nor AdaMeC (33 mM) produced specific antibodies”.
